Experimental data taken from ChEMBL document CHEMBL1201862, “PubChem BioAssay data set” (2004).
Activity calls are given as the source filed them.

Assays:
Streptococcus = assay: Group A Streptococcus viability loss, dose response, counter-screen for streptokinase expression inhibitor project, luminescence, BacTiterGlo (AID 1915); assay type: functional, organism-based;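 also: potency for reduction of bacterial viability or growth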
[1] = tested on: Streptococcus sp. 'group A'; assay: growth inhibition of control SK(-) GAS strain, dose response, counter-screen for streptokinase expression inhibitor project, luminescence, kanamycin, BacTiterGlo, confirmation (AID 1900); assay type: functional, organism-based
Streptokinase A = biological target: T1, Streptokinase A (Streptococcus pyogenes serotype M1, UniProt P10520); assay: S. pyogenes streptokinase expression inhibitors, potency, dose response, plasminogen activation absorbance, OD405 (AID 1914); assay type: functional, Streptococcus pyogenes M1 GAS;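 also: secreted streptokinase activity via plasminogen activation per viability signal from cell pellet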
T1 sequence (P10520 whole entry): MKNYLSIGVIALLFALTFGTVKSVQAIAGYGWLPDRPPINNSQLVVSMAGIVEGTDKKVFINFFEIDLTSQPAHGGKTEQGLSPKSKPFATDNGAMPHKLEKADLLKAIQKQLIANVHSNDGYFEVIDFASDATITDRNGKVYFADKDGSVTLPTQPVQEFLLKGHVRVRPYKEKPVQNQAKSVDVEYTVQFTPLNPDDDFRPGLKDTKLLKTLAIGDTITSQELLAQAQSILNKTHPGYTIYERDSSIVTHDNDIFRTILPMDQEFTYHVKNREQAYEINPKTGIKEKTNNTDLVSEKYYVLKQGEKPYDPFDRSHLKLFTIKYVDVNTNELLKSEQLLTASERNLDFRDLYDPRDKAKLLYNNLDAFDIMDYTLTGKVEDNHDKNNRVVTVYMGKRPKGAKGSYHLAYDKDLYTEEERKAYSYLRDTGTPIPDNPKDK

Paired box protein Pax-8 = Paired box protein Pax-8 (Homo sapiens, UniProt Q06710); assay: inhibitors of PAX8-driven TPO luciferase reporter, dose response, RMG-I cells, cherry-pick (AID 687027); assay type: functional, cell-based;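 also: luciferase reporter driven by Pax8 target thyroperoxidase promoter measured by SteadyGlo luminescence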
Chain of Paired box protein Pax-8 (Q06710 whole entry): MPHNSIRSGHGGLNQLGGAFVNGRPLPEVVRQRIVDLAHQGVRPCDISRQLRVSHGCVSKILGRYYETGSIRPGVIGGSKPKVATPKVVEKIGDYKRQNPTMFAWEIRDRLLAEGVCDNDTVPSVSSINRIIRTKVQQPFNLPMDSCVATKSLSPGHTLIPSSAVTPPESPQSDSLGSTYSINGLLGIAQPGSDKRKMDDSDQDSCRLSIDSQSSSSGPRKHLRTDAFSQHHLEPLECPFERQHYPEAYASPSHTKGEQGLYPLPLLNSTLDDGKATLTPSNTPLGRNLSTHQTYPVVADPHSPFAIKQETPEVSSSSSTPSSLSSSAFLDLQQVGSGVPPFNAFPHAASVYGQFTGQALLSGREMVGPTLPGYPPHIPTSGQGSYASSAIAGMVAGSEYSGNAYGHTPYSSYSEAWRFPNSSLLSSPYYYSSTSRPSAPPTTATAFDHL

INS1 = assay: beta cell apoptosis inhibitors, cytokine rescue, dose response, luminescence, retest (AID 449756); assay type: functional, cell-based; conditions: Rattus norvegicus;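 also: cell death triggered by IL-1 beta plus TNF-alpha plus IFN-gamma mixture; protective hits raise ATP signal compared with cytokine alone wells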
[2] = Luminescence Cell-Based Dose Response HTS to Identify Inhibitors of 5'UTR Stem-Loop Driven Prion Protein mRNA Translation in H4 Neuroglioblastoma Cells. [Related pubchem assays: 1827 (Project Summary), 1813 (Primary HTS)]; assay type: functional
[3] = inhibitors of SNCA 5'UTR-driven reporter translation, confirmation, H4 neuroglioma cells, luminescence (AID 1988); assay type: functional, cell-based
[4] = inhibitors of firefly luciferase expression or activity, dose response, H4 neuroglioma cells, luminescence (AID 1990); assay type: functional, cell-based
[5] = biological target: T2, Rac GTPase-activating protein 1 (Homo sapiens, UniProt Q9H0H5); assay: MgcRacGAP GTPase-activating activity inhibitors, confirmation, biochemical, ADP Hunter fluorescence, primary and confirmatory (AID 624330); assay type: functional
T2 sequence (Q9H0H5 whole entry): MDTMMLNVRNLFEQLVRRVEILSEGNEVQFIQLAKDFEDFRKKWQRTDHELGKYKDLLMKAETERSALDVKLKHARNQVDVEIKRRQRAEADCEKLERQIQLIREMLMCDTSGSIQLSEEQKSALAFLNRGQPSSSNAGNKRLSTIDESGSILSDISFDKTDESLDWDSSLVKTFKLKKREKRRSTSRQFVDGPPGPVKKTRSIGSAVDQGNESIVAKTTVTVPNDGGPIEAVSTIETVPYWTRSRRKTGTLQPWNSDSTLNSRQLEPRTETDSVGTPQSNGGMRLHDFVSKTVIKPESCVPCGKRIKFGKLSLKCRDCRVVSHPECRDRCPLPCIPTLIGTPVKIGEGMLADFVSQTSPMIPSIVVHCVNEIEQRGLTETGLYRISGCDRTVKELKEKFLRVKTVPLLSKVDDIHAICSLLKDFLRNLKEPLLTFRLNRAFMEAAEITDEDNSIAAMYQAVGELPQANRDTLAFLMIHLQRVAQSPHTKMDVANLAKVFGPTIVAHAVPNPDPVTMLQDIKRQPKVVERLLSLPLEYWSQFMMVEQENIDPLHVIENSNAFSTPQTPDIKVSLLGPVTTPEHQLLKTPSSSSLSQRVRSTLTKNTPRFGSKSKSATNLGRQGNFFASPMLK

Cytochrome P450 2C9 = Cytochrome P450 2C9 (Homo sapiens, UniProt P11712)
Chain of Cytochrome P450 2C9 (P11712 whole entry): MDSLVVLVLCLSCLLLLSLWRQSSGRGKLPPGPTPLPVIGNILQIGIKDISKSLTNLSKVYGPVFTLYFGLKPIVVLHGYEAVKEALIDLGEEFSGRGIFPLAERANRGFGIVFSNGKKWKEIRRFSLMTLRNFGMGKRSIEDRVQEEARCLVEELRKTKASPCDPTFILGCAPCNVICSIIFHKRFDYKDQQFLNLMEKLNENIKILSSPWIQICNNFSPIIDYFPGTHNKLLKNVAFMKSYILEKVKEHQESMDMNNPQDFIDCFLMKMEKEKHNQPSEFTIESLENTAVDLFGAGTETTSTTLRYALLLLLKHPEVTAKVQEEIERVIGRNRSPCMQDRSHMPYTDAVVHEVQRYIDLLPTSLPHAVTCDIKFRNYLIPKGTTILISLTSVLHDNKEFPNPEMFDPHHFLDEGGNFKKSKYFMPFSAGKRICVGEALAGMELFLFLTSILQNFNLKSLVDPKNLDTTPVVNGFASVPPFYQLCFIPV

Cytochrome P450 2C19 = Cytochrome P450 2C19 (Homo sapiens, UniProt P33261); assay: Cytochrome panel assay with activity outcomes. Panel member name: p450-cyp2c19 Compounds with AC50 equal or less than 10 uM are considered active; assay type: functional
Chain of Cytochrome P450 2C19 (P33261 whole entry): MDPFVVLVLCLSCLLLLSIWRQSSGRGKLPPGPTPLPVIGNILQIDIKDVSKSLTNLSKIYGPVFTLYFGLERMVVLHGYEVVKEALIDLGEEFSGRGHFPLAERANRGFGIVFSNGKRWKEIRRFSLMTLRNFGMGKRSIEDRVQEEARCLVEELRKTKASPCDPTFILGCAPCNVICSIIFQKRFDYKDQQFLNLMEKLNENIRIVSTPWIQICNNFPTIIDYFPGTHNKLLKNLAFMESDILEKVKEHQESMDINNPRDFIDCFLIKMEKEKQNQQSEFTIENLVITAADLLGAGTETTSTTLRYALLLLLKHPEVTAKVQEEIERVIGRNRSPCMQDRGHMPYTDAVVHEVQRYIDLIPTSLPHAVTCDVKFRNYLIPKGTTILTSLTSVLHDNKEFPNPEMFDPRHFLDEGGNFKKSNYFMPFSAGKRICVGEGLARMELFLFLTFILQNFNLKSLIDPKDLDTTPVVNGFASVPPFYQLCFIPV

[6] = Luminescence Cell-Based Dose Retest to Confirm Inhibitors of Cancer Stem Cells. [Related pubchem assays (depositor defined):AID2717, AID2721]; assay type: functional; conditions: Homo sapiens
[7] = HEp-2 cell cytotoxicity, dose response, cytotoxicity control for RSV inhibitor project, HTS (AID 2410); assay type: functional; conditions: human respiratory syncytial virus
[8] = C. albicans growth with fluconazole, confirmation, fluorescence, retest (AID 2467); assay type: functional, cell-based
[9] = NIH-3T3 fibroblast cytotoxicity, dose response, cytotoxicity control, cell-based, fluorescence, Alamar Blue, secondary assay (AID 2327); assay type: functional;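 also: NIH-3T3 mouse fibroblasts cultured with fluconazole at 8 µg/mL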

SMILES: CCS(=O)(=O)N1Cc2ccccc2CC1C(=O)Nc1nnc(SCc2ccc(F)cc2)s1 (centres undefined)
- EC50 (Streptococcus): 91.2 µM (active)
- EC50 [1]: 8.48 µM (active)
- EC50 (Streptokinase A): > 150 µM (not active)

SMILES: C[C@@H]1CN([C@@H](C)CO)C(=O)c2cc(NC(=O)NC3CCCCC3)ccc2O[C@@H](C)CCCCO[C@H]1CN(C)Cc1ccc(C(F)(F)F)cc1
- AC50 (Paired box protein Pax-8): 11.5 µM (active)

SMILES: CN(C)S(=O)(=O)c1cccc(NC2=NN=C(c3ccccc3)CS2)c1
- AC50 (INS1): 7.27 µM (active)

SMILES: Cc1cccc(Oc2nc(-c3ccncc3)nc3ccccc23)c1
- EC50 (Streptococcus): 12.5 µM (active)
- EC50 [1]: 10.9 µM (active)
- EC50 (Streptokinase A): > 150 µM (not active)

SMILES: CN(C)CCCN(C(=O)COc1ccc(Cl)cc1)c1nc2cc3c(cc2s1)OCO3
- AC50 (INS1): 14.2 µM (active)

SMILES: Nc1nn2c(O)c3c(nc2c1N=Nc1ccc(Cl)cc1)CCCC3
- EC50 (Streptococcus): > 150 µM (not active)
- EC50 [1]: 6.99 µM (active)
- EC50 (Streptokinase A): > 150 µM (not active)

SMILES: COC(=O)C1=C(CSc2nc3ccccc3o2)NC(=O)NC1c1cc(C)ccc1C (centres undefined)
- EC50 [2]: > 120 µM (not active)
- EC50 [3]: > 120 µM (not active)
- EC50 [4]: > 120 µM (not active)

SMILES: O=C(Nc1cc(Br)c(O)c(Br)c1)c1cccc(NC(=O)c2ccco2)c1
- IC50 [5]: 95.2 µM (active)

SMILES: CCCCN1C(=O)C(NC(=O)c2cccnc2)(C(F)(F)F)C2=C1CC(C)(C)CC2=O (centres undefined)
- AC50 (Cytochrome P450 2C9): 35.5 µM (inconclusive)
- AC50 (Cytochrome P450 2C19): inconclusive

SMILES: COc1ccc(/C=C/c2nc3cc(-c4ccccc4)ccc3o2)cc1O
- AC50 [6]: 4.06 µM (active)
- CC50 [7]: 36.3 µM (active)

SMILES: Cc1ccccc1-[n+]1c(-c2ccccc2)cc(-c2ccccc2)cc1-c1ccccc1.[O-][Cl+3]([O-])([O-])[O-]
- AC50 (INS1): 2.26 µM (active)
- EC50 [8]: 0.21 µM (active)
- EC50 [9]: 36.3 µM (active)

SMILES: COc1ccc(CCNCCN2CCOCC2)cc1
- IC50 [5]: 77.1 µM (active)

SMILES: COc1ccccc1N1CCN(S(=O)(=O)CCNC(=O)c2cc(OC)c(OC)c(OC)c2)CC1
- EC50 [2]: > 120 µM (not active)
- EC50 [3]: 10.6 µM (active)
- EC50 [4]: > 120 µM (not active)

SMILES: O=c1[nH]c(=O)n(Cc2ccco2)c2c1C(C(F)(F)F)(C(F)(F)F)NC(c1ccc(F)cc1)=N2
- AC50 (INS1): 3.11 µM (active)

SMILES: CCOc1ccccc1CN1CCC(N2CCOCC2)CC1
- IC50 [5]: 83 µM (active)

SMILES: O=c1c2sc3ccccc3c2[nH]c(=S)n1CCN1CCOCC1
- IC50 [5]: 91.3 µM (active)

SMILES: COc1cc2cc(-c3ccc(O)cc3O)nc(C)c2cc1OC
- IC50 [5]: 29.9 µM (active)

SMILES: CN(Cc1c(F)cccc1Cl)C(=O)c1cc2ccccc2o1
- AC50 (INS1): > 260 µM (inactive)

SMILES: Cn1cnc2cc(NCc3ccccc3O)ccc21
- IC50 [5]: 93.9 µM (active)

SMILES: O=C(COCc1cc(-c2ccc3c(c2)OCO3)on1)N1CCN(c2cccc(C(F)(F)F)c2)CC1
- AC50 [6]: 1.51 µM (active)

SMILES: COc1ccc(NC(=O)c2cc3ccc(O)cc3o/c2=N\O)cc1
- IC50 [5]: 42 µM (active)
- AC50 [6]: 5.22 µM (active)

SMILES: O=C(NC1CC1)c1ccc(-c2nc3ccccc3s2)s1
- EC50 [2]: 7.52 µM (active)
- EC50 [3]: 13.6 µM (inconclusive)
- EC50 [4]: 4.13 µM (active)

SMILES: Cc1cccc(NC(=O)c2ccccc2OCC(=O)c2ccc(F)cc2)c1
- EC50 [2]: > 120 µM (not active)
- EC50 [3]: > 120 µM (not active)
- EC50 [4]: > 120 µM (not active)

SMILES: CC(Cc1ccccc1)NC(=O)CSc1nc2nc3c(cc2c(=O)n1-c1ccccc1)COC(C)(C)C3 (centres undefined)
- AC50 (Cytochrome P450 2C9): 15.8 µM (inconclusive)
- AC50 (Cytochrome P450 2C19; read-out: AC50): 35.5 µM (inconclusive)
